The term Kd denotes the free concentration of one partner at which half of the binding sites on the other are occupied at equilibrium, for simple one-to-one binding.

13 compounds from ChEMBL document CHEMBL3991601, “The target landscape of clinical kinase drugs” (Science, 2017) can be followed below.

Assay [1] has as its target T1, Serine/threonine-protein kinase Nek3 (Homo sapiens, UniProt P51956).
T1 sequence (P51956 whole entry): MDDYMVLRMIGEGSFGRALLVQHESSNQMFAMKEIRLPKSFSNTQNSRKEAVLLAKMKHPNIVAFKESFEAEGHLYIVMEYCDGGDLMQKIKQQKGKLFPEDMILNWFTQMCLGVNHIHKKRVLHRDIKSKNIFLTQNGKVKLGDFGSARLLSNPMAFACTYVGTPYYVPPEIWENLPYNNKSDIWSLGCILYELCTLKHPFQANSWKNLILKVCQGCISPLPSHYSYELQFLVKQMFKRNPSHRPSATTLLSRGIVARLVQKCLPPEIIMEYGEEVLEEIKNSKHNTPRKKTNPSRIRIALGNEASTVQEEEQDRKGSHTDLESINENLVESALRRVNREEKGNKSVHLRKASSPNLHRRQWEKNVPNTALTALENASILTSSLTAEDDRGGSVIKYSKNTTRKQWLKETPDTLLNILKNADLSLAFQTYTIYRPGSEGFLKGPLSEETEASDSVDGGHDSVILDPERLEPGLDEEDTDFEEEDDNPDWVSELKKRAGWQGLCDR

In assay [2] the target is Protein-tyrosine kinase 6 (Homo sapiens, UniProt Q13882).
Chain of Protein-tyrosine kinase 6 (Q13882 whole entry): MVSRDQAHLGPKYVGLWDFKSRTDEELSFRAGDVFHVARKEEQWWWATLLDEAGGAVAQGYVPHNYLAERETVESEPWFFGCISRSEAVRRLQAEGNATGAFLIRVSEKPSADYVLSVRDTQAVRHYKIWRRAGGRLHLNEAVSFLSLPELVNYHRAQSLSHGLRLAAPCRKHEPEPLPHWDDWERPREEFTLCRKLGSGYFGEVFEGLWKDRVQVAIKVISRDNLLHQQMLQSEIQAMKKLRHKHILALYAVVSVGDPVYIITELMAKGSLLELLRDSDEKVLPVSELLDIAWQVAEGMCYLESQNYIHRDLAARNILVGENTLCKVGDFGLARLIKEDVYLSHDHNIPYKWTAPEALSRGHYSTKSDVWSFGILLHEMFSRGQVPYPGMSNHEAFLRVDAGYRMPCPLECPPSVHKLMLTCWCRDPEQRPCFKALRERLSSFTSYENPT
Assay [3] deals with Cyclin-dependent kinase 6 (Homo sapiens, UniProt Q00534).
Chain of Cyclin-dependent kinase 6 (Q00534 whole entry): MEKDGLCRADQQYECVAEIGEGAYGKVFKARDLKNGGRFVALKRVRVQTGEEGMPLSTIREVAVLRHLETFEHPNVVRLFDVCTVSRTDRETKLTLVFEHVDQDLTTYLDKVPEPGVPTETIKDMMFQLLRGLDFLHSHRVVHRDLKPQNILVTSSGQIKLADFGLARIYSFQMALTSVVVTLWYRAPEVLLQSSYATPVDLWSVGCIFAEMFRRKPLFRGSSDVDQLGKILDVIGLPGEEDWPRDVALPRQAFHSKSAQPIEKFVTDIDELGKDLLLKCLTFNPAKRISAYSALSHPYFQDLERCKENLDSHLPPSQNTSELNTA
In assay [4] the target is Proto-oncogene tyrosine-protein kinase receptor Ret (Homo sapiens, UniProt P07949).
Chain of Proto-oncogene tyrosine-protein kinase receptor Ret (P07949 whole entry): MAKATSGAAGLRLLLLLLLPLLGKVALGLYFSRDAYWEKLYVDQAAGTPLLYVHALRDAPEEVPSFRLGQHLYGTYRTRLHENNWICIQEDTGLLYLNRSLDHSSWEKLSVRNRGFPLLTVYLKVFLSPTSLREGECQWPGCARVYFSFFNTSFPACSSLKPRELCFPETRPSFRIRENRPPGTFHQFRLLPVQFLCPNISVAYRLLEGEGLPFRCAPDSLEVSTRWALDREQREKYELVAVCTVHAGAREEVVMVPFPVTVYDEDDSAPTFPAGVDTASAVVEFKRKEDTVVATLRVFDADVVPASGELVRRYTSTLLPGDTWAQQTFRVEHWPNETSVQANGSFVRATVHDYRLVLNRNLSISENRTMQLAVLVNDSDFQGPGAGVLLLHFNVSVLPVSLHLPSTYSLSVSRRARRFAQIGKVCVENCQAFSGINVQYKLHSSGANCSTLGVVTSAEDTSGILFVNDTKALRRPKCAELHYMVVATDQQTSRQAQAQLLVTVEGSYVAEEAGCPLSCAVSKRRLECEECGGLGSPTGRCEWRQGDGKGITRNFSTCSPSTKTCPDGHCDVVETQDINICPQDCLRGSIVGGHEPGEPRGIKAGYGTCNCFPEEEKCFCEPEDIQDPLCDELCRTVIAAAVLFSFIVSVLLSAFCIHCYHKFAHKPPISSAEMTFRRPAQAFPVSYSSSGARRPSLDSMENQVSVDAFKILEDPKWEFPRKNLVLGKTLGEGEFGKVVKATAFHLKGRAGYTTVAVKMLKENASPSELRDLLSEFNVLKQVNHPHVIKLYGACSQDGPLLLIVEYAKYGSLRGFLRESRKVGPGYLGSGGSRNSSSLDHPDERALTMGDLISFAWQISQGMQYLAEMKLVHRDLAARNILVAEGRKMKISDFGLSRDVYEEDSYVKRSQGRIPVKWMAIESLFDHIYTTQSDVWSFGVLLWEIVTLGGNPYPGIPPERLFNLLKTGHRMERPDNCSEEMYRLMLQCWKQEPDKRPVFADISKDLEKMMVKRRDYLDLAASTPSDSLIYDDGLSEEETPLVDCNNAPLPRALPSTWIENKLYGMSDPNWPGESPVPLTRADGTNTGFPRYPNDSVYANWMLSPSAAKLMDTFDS
The target of assay [5] is T2, Serine/threonine-protein kinase STK11 (Homo sapiens, UniProt Q15831).
T2 sequence (Q15831 whole entry): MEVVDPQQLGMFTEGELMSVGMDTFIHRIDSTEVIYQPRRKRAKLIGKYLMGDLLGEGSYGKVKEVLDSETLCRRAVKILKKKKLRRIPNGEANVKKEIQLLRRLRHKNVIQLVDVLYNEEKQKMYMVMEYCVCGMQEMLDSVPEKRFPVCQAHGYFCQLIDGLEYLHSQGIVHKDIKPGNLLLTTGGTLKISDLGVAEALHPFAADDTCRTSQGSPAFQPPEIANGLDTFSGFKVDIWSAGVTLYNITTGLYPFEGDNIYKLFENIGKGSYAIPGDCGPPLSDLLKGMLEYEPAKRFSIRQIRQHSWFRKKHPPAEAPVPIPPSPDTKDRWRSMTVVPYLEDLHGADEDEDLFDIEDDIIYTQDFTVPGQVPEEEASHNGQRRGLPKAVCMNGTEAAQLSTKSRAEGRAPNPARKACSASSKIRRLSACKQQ

The target of assay [6] is T3, Mitogen-activated protein kinase kinase kinase 2 (Homo sapiens, UniProt Q9Y2U5).
T3 sequence (Q9Y2U5 whole entry): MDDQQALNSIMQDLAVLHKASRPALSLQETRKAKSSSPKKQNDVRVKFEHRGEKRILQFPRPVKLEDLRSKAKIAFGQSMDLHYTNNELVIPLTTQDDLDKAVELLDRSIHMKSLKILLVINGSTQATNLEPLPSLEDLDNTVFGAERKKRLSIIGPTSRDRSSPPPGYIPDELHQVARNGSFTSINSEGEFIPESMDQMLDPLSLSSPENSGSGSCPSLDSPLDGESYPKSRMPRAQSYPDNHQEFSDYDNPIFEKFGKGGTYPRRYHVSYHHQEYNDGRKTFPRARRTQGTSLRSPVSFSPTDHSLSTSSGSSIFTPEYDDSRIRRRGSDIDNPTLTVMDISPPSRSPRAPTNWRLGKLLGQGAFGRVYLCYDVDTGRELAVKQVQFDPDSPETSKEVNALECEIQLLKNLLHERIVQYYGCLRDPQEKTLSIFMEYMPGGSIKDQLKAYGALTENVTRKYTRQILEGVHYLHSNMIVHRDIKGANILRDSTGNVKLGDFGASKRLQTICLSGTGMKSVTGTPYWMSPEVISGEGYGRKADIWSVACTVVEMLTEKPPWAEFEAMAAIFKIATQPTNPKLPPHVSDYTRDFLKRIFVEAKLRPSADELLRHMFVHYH

The target of assay [7] is Protein-tyrosine kinase 2-beta (Homo sapiens, UniProt Q14289).
Chain of Protein-tyrosine kinase 2-beta (Q14289 whole entry): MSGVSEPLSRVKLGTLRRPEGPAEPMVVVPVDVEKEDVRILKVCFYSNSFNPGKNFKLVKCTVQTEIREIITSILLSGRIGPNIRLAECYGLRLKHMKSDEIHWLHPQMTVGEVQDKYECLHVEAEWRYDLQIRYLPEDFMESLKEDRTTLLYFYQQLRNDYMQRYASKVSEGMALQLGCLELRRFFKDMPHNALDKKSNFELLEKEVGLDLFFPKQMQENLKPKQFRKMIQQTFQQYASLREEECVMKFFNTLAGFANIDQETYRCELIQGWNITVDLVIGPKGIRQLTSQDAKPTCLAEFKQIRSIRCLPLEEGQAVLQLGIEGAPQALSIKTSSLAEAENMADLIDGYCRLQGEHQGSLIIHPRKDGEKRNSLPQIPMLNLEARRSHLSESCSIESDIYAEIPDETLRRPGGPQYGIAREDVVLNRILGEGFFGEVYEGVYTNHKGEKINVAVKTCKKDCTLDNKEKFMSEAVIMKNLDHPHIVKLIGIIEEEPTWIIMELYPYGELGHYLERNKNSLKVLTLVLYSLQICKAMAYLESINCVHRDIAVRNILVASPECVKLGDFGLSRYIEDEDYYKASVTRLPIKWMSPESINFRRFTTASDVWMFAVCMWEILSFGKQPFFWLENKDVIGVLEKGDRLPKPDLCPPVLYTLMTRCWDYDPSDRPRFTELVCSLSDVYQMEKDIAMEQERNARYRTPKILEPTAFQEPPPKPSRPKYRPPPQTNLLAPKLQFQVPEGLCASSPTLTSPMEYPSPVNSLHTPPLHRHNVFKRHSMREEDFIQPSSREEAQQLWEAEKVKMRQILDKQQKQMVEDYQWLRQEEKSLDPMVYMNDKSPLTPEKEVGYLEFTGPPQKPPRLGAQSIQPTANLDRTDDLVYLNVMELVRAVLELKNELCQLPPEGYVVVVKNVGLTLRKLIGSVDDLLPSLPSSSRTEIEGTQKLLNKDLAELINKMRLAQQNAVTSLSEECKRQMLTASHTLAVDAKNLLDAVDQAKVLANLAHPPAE
Assay [8] deals with Activated CDC42 kinase 1 (Homo sapiens, UniProt Q07912).
Chain of Activated CDC42 kinase 1 (Q07912 whole entry): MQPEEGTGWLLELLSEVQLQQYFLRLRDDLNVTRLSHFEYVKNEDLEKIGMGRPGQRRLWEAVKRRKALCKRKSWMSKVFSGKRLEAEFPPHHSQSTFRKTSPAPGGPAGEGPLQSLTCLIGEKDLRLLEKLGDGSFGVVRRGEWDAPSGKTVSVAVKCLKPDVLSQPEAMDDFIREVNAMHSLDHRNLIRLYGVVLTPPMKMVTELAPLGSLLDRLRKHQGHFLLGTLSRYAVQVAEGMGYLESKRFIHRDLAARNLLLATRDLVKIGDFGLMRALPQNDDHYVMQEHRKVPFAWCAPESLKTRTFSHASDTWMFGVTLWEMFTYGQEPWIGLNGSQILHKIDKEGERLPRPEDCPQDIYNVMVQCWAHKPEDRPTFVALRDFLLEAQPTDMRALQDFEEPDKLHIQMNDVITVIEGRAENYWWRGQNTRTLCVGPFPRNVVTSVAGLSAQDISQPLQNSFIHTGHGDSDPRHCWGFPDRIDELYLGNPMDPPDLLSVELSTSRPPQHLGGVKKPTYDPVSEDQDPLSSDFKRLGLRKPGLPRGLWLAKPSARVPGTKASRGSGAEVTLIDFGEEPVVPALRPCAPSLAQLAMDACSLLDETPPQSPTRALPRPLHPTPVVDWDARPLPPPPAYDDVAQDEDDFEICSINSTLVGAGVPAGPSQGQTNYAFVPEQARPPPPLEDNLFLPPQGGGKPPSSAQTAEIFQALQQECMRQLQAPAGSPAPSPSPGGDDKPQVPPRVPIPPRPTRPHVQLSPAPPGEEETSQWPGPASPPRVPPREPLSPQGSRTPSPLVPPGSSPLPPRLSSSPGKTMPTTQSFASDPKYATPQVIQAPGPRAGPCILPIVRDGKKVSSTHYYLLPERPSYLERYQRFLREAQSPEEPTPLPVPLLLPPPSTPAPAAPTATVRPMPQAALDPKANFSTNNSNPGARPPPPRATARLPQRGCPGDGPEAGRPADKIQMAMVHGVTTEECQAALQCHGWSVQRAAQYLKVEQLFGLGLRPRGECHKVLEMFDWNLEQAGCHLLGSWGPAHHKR
Assay [9] deals with T4, Ras-related protein Rab-27A (Homo sapiens, UniProt P51159).
T4 sequence (P51159 whole entry): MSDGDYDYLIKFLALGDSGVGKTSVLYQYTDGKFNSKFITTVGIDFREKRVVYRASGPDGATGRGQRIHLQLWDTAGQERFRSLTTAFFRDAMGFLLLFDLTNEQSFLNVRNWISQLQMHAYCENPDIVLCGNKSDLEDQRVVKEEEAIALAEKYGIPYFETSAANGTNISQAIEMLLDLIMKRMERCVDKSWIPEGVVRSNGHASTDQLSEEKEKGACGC

Activity calls are given as the source filed them. Cut-off read from the data, not from the text of the source, for most assays here: actives have a measured Kd and inactives only a lower limit.
Note: in the data inactive means no Kd found up to 30 µM.

Turning to `CN1CCN(CCOc2cc(OC3CCOCC3)c3c(Nc4c(Cl)ccc5c4OCO5)ncnc3c2)CC1` [SARACATINIB], the Kd in assay [1] was > 30 µM (inactive); in assay [2], 0.566 µM; in assay [3], > 30 µM (inactive); in [4], 0.178 µM; in [5], > 30 µM (inactive); in assay [6], > 30 µM (inactive). The values for the Kd in assay [7], in [8] and in assay [9] were > 30 µM (inactive), 4.65 µM (active) and > 30 µM (inactive), respectively.

`Cn1cc(-c2cnn3c(N)c(Br)c([C@@H]4CCCNC4)nc23)cn1` [SCH-900776]: the Kd is > 30 µM (inactive) in [1]; > 30 µM (inactive) in [2]; > 30 µM (inactive) in assay [3]; 2.55 µM in assay [4]; > 30 µM (inactive) in [5]; > 30 µM (inactive) in assay [6]. Further, the Kd in assay [7], in [8] and in assay [9] was > 30 µM (inactive) in each case.

With `CO[C@H]1C[C@@H]2CC[C@@H](C)[C@@](O)(O2)C(=O)C(=O)N2CCCC[C@H]2C(=O)O[C@H]([C@H](C)C[C@@H]2CC[C@@H](O)[C@H](OC)C2)CC(=O)[C@H](C)/C=C(\C)[C@@H](O)[C@@H](OC)C(=O)[C@H](C)C[C@H](C)/C=C/C=C/C=C/1C` [SIROLIMUS], the Kd in assay [1], in assay [2], in assay [3], in assay [4], in assay [5] and in [6] was > 30 µM (inactive) throughout. For the same compound, the Kd in [7], in assay [8] and in assay [9] was > 30 µM (inactive) each time.

For `CCS(=O)(=O)c1cccc(-c2cc(C(=O)NC3CCN(C)CC3)c(C)c3[nH]c4ncc(C)cc4c23)c1` [TAK-901], the Kd in assay [1] is > 30 µM (inactive); in assay [2] it was 0.18 µM (active); in assay [3], > 30 µM (inactive); in assay [4] it was 0.111 µM (active); in [5], > 30 µM (inactive); in assay [6] it was > 30 µM (inactive). The equilibrium dissociation constant (Kd) was 0.19 µM (active) in [7], 0.281 µM (active) in assay [8] and > 30 µM (inactive) in assay [9].

In the case of `CO[C@H]1C[C@@H]2CC[C@@H](C)[C@@](O)(O2)C(=O)C(=O)N2CCCC[C@H]2C(=O)O[C@H]([C@H](C)C[C@@H]2CC[C@@H](OC(=O)C(C)(CO)CO)[C@H](OC)C2)CC(=O)[C@H](C)/C=C(\C)[C@@H](O)[C@@H](OC)C(=O)[C@H](C)C[C@H](C)/C=C/C=C/C=C/1C` [TEMSIROLIMUS], the Kd in assay [1], in assay [2], in assay [3], in [4], in [5] and in [6] was > 30 µM (inactive) in each case. The Kd in assay [7], in assay [8] and in assay [9] was > 30 µM (inactive) in each case.

As to `COc1cc2c(Nc3ccc(Cl)c(Cl)c3F)ncnc2cc1OC[C@@H]1C[C@@H]2CN(C)C[C@@H]2C1` [TESEVATINIB], the Kd in assay [1] is > 30 µM (inactive); in assay [2], 0.172 µM (active); in assay [3] it was > 30 µM (inactive); in [4], 0.064 µM (active); in assay [5], > 30 µM (inactive); in assay [6] it was > 30 µM (inactive). Further, the Kd in assay [7], in assay [8] and in [9] was > 30 µM (inactive) each time.

On to `O=C(Cc1ccc(-c2ccc(OCCN3CCOCC3)cc2)cn1)NCc1ccccc1` [TIRBANIBULIN], for which the Kd in [1], in assay [2], in assay [3], in [4], in assay [5] and in [6] was > 30 µM (inactive) throughout. The Kd in [7], in [8] and in assay [9] was > 30 µM (inactive) throughout.

For the compound `O=C1NC(=O)[C@@H](c2cn3c4c(cccc24)CCC3)[C@@H]1c1c[nH]c2ccccc12` [TIVANTINIB], the Kd in assay [1], in assay [2], in assay [3], in [4], in assay [5] and in assay [6] was > 30 µM (inactive) each time. Further, the Kd in [7], in assay [8] and in assay [9] was > 30 µM (inactive) in each case.

As for `C[C@@H](NC(=O)c1ncnc(N)c1Cl)c1ncc(C(=O)Nc2cc(C(F)(F)F)c(Cl)cn2)s1` [TOVORAFENIB], the Kd in assay [1], in assay [2], in assay [3], in assay [4], in [5] and in [6] was > 30 µM (inactive) in each case. Also, the Kd in assay [7], in assay [8] and in [9] was > 30 µM (inactive) in each case.

As for `Cc1cc(Nc2ncnc3ccc(NC4=NC(C)(C)CO4)cc23)ccc1Oc1ccn2ncnc2c1` [TUCATINIB], the Kd in assay [1], in assay [2], in assay [3], in [4], in [5] and in assay [6] was > 30 µM (inactive) throughout. Further, the Kd in assay [7], in assay [8] and in [9] was > 30 µM (inactive) each time.

`Cn1ncc(Cl)c1-c1cc(C(=O)N[C@H](CN)Cc2ccc(F)c(F)c2)oc1Cl` [UPROSERTIB]: the Kd in assay [1], in [2], in assay [3], in assay [4], in [5] and in [6] was > 30 µM (inactive) each time. The Kd in assay [7], in assay [8] and in [9] was > 30 µM (inactive) in each case.

Turning to `CC(C)c1cc(CNc2nc(Nc3cc(C4CC4)[nH]n3)cc(N3CCN(C)CC3)n2)on1` [XL-228], the Kd was > 30 µM (inactive) in [1]; > 30 µM (inactive) in assay [2]; > 30 µM (inactive) in assay [3]; 0.009 µM (active) in [4]; 3.08 µM in assay [5]; > 30 µM (inactive) in [6]. In addition, the dissociation constant (Kd) in assay [7] was 0.118 µM (active); in [8], 0.076 µM (active); in assay [9] it was > 30 µM (inactive).

Turning to `C[C@@H](N)c1ccc(C(=O)Nc2ccnc3[nH]ccc23)cc1` [Y-39983], the Kd in [1], in assay [2], in assay [3], in assay [4], in assay [5] and in assay [6] was > 30 µM (inactive) each time. Further, the Kd in [7], in assay [8] and in assay [9] was > 30 µM (inactive) each time.
